{
  "source": "patent US20260262643A1",
  "about": "“HERBICIDAL BENZOXAZINES” (FMC CORPORATION, priority 2022, published 2026)",
  "key": {"pigweed, palmer [1]": {"system": "pigweed, palmer", "experiment": "Test C postemergence", "assay_type": "in vivo, Amaranthus palmeri", "conditions": "10 days", "outline": "(§1)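 Seeds in loam–sand blend received preemergence directed soil spray of test chemicals in non-phytotoxic solvent with surfactant; postemergence treatment was applied at one- to two-leaf stage (2–10 cm). After 10 days in greenhouse, injury rated visually versus untreated controls, 0 (no effect) to 100 (complete control).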"}, "green foxtail [2]": {"system": "green foxtail", "experiment": "Test C postemergence", "assay_type": "in vivo, Setaria viridis", "conditions": "10 days", "outline": "as §1"}, "horseweed": {"system": "horseweed", "experiment": "Test C postemergence", "assay_type": "in vivo, Erigeron canadensis", "conditions": "10 days", "outline": "as §1"}, "ragweed [3]": {"system": "ragweed", "experiment": "Test C postemergence", "assay_type": "in vivo, Ambrosia artemisiifolia", "conditions": "10 days", "outline": "as §1"}, "green foxtail [4]": {"system": "green foxtail", "experiment": "Test C preemergence", "assay_type": "in vivo, Setaria viridis", "conditions": "0 to 100 scale (0 no effect, 100 complete control)", "outline": "as §1"}, "wheat [5]": {"system": "wheat", "experiment": "Test C postemergence", "assay_type": "in vivo, Triticum aestivum", "conditions": "10 days", "outline": "as §1"}, "galium": {"system": "galium", "experiment": "Test C postemergence", "assay_type": "in vivo, Galium aparine", "conditions": "10 days", "outline": "as §1"}, "blackgrass [6]": {"system": "blackgrass", "experiment": "Test C postemergence", "assay_type": "in vivo, Alopecurus myosuroides", "conditions": "10 days", "outline": "as §1"}, "soybean [7]": {"system": "soybean", "experiment": "Test C preemergence", "assay_type": "in vivo, Glycine max", "conditions": "0 to 100 scale (0 no effect, 100 complete control)", "outline": "as §1"}, "kochia [8]": {"system": "kochia", "experiment": "Test C postemergence", "assay_type": "in vivo, Bassia scoparia", "conditions": "10 days", "outline": "as §1"}, "oat, wild [9]": {"system": "oat, wild", "experiment": "Test C preemergence", "assay_type": "in vivo, Avena fatua", "conditions": "0 to 100 scale (0 no effect, 100 complete control)", "outline": "as §1"}, "ryegrass, Italian [10]": {"system": "ryegrass, Italian", "experiment": "Test C preemergence", "assay_type": "in vivo, Lolium multiflorum", "conditions": "0 to 100 scale (0 no effect, 100 complete control)", "outline": "as §1"}, "barnyardgrass [11]": {"system": "barnyardgrass", "experiment": "Test C preemergence", "assay_type": "in vivo, Echinochloa crusgalli", "conditions": "0 to 100 scale (0 no effect, 100 complete control)", "outline": "as §1"}, "corn [12]": {"system": "corn", "experiment": "Test C postemergence", "assay_type": "in vivo, Zea mays", "conditions": "10 days", "outline": "as §1"}, "sedge, umbrella": {"system": "sedge, umbrella", "experiment": "Test D flooded paddy test", "assay_type": "in vivo, Cyperus difformis", "conditions": "250 g ai/ha, applied to paddy water, visual rating after 13 to 14 days, scale 0 to 100 (0 no effect, 100 complete control)", "outline": "(§2)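 Rating scale 0–100 (0 no effect, 100 complete control), visual, versus controls. Readout at 13–14 days after in-water application to 2-leaf plants in pots flooded 3 cm deep.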"}, "blackgrass [13]": {"system": "blackgrass", "experiment": "Test C preemergence", "assay_type": "in vivo, Alopecurus myosuroides", "conditions": "0 to 100 scale (0 no effect, 100 complete control)", "outline": "as §1"}, "ryegrass, Italian [14]": {"system": "ryegrass, Italian", "experiment": "Test C postemergence", "assay_type": "in vivo, Lolium multiflorum", "conditions": "10 days", "outline": "as §1"}, "ragweed [15]": {"system": "ragweed", "experiment": "Test C preemergence", "assay_type": "in vivo, Ambrosia artemisiifolia", "conditions": "0 to 100 scale (0 no effect, 100 complete control)", "outline": "as §1"}, "barnyardgrass [16]": {"system": "barnyardgrass", "experiment": "Test D flooded paddy test", "assay_type": "in vivo, Echinochloa crus-galli", "conditions": "250 g ai/ha, applied to paddy water, visual rating after 13 to 14 days, scale 0 to 100 (0 no effect, 100 complete control)", "outline": "as §2"}, "pigweed, palmer [17]": {"system": "pigweed, palmer", "experiment": "Test C preemergence", "assay_type": "in vivo, Amaranthus palmeri", "conditions": "0 to 100 scale (0 no effect, 100 complete control)", "outline": "as §1"}, "ducksalad": {"system": "ducksalad", "experiment": "Test D flooded paddy test", "assay_type": "in vivo, Heteranthera limosa", "conditions": "250 g ai/ha, applied to paddy water, visual rating after 13 to 14 days, scale 0 to 100 (0 no effect, 100 complete control)", "outline": "as §2"}, "wheat [18]": {"system": "wheat", "experiment": "Test C preemergence", "assay_type": "in vivo, Triticum aestivum", "conditions": "0 to 100 scale (0 no effect, 100 complete control)", "outline": "as §1"}, "oat, wild [19]": {"system": "oat, wild", "experiment": "Test C postemergence", "assay_type": "in vivo, Avena fatua", "conditions": "10 days", "outline": "as §1"}, "kochia [20]": {"system": "kochia", "experiment": "Test C preemergence", "assay_type": "in vivo, Bassia scoparia", "conditions": "0 to 100 scale (0 no effect, 100 complete control)", "outline": "as §1"}, "corn [21]": {"system": "corn", "experiment": "Test C preemergence", "assay_type": "in vivo, Zea mays", "conditions": "Test C, preemergence, 125 g ai/ha; 0 to 100 scale (0 no effect, 100 complete control)", "outline": "as §1"}, "soybean [22]": {"system": "soybean", "experiment": "Test C postemergence", "assay_type": "in vivo, Glycine max", "conditions": "10 days", "outline": "as §1"}, "barnyardgrass [23]": {"system": "barnyardgrass", "experiment": "Test C postemergence", "assay_type": "in vivo, Echinochloa crusgalli", "conditions": "10 days", "outline": "as §1"}, "rice": {"system": "rice", "experiment": "Test D flooded paddy test", "assay_type": "in vivo, Oryza sativa", "conditions": "250 g ai/ha, applied to paddy water, visual rating after 13 to 14 days, scale 0 to 100 (0 no effect, 100 complete control)", "outline": "as §2"}, "[24]": {"conditions": "125 g ai/ha, postemergence, 0 to 100 scale, 0 no effect, 100 complete control"}, "[25]": {"conditions": "Postemergence, 500 g ai/ha, visual 0 to 100 scale (0 no effect, 100 complete control)"}, "[26]": {"conditions": "Preemergence, 500 g ai/ha, visual rating after 10 days"}, "[27]": {"conditions": "Test C, preemergence, 125 g ai/ha"}},
  "data": [
    {"smiles": "Cc1ccc(-n2cnc(C3(C(F)(F)F)CCC3)n2)cc1C(=O)N1C[C@H](C)Oc2c(Cl)cccc21", "note": "[Compound 168]", "values": [
      {"measurement": "Plant response rating, Pigweed, Palmer", "setting": "pigweed, palmer [1]; [24]", "value": 70},
      {"measurement": "Plant response rating, Pigweed, Palmer", "setting": "pigweed, palmer [1]; [25]", "value": 90},
      {"measurement": "Plant response rating, Foxtail, Green", "setting": "green foxtail [2]; [24]", "value": 20},
      {"measurement": "Plant response rating, Foxtail, Green", "setting": "green foxtail [2]; [25]", "value": 30},
      {"measurement": "Plant response rating, Horseweed", "setting": "horseweed; [24]", "value": 0},
      {"measurement": "Plant response rating, Horseweed", "setting": "horseweed; [25]", "value": 10},
      {"measurement": "Plant response rating, Ragweed", "setting": "ragweed [3]; [24]", "value": 60},
      {"measurement": "Plant response rating, Ragweed", "setting": "ragweed [3]; [25]", "value": 70},
      {"measurement": "Plant response rating, Foxtail, Green", "setting": "green foxtail [4]; [26]", "value": 100},
      {"measurement": "Foxtail, Green plant response rating", "setting": "green foxtail [4]; [27]", "value": 50},
      {"measurement": "Plant response rating, Wheat", "setting": "wheat [5]; [24]", "value": 10},
      {"measurement": "Plant response rating, Wheat", "setting": "wheat [5]; [25]", "value": 20},
      {"measurement": "Plant response rating, Galium", "setting": "galium; [24]", "value": 80},
      {"measurement": "Plant response rating, Galium", "setting": "galium; [25]", "value": 90},
      {"measurement": "Plant response rating, Blackgrass", "setting": "blackgrass [6]; [24]", "value": 0},
      {"measurement": "Plant response rating, Blackgrass", "setting": "blackgrass [6]; [25]", "value": 0},
      {"measurement": "Plant response rating, Soybean", "setting": "soybean [7]; [26]", "value": 60},
      {"measurement": "Soybean plant response rating", "setting": "soybean [7]; [27]", "value": 60},
      {"measurement": "Plant response rating, Kochia", "setting": "kochia [8]; [24]", "value": 80},
      {"measurement": "Plant response rating, Kochia", "setting": "kochia [8]; [25]", "value": 80},
      {"measurement": "Plant response rating, Oat, Wild", "setting": "oat, wild [9]; [26]", "value": 20},
      {"measurement": "Oat, Wild plant response rating", "setting": "oat, wild [9]; [27]", "value": 0},
      {"measurement": "Plant response rating, Ryegrass, Italian", "setting": "ryegrass, Italian [10]; [26]", "value": 90},
      {"measurement": "Ryegrass, Italian plant response rating", "setting": "ryegrass, Italian [10]; [27]", "value": 70},
      {"measurement": "Barnyardgrass plant response rating", "setting": "barnyardgrass [11]; 125 g ai/ha, preemergence", "value": 50},
      {"measurement": "Plant response rating, Barnyardgrass", "setting": "barnyardgrass [11]; [26]", "value": 70},
      {"measurement": "Plant response rating, Corn", "setting": "corn [12]; [24]", "value": 10},
      {"measurement": "Plant response rating, Corn", "setting": "corn [12]; [25]", "value": 10},
      {"measurement": "Plant response rating, Sedge, Umbrella (Flood)", "setting": "sedge, umbrella", "value": 0},
      {"measurement": "Plant response rating, Blackgrass", "setting": "blackgrass [13]; [26]", "value": 60},
      {"measurement": "Blackgrass plant response rating", "setting": "blackgrass [13]; [27]", "value": 20},
      {"measurement": "Plant response rating, Ryegrass, Italian", "setting": "ryegrass, Italian [14]; [24]", "value": 20},
      {"measurement": "Plant response rating, Ryegrass, Italian", "setting": "ryegrass, Italian [14]; [25]", "value": 40},
      {"measurement": "Plant response rating, Ragweed", "setting": "ragweed [15]; [26]", "value": 60},
      {"measurement": "Ragweed plant response rating", "setting": "ragweed [15]; [27]", "value": 30},
      {"measurement": "Plant response rating, Barnyardgrass (Flood)", "setting": "barnyardgrass [16]", "value": 0},
      {"measurement": "Plant response rating, Pigweed, Palmer", "setting": "pigweed, palmer [17]; [26]", "value": 100},
      {"measurement": "Pigweed, Palmer plant response rating", "setting": "pigweed, palmer [17]; [27]", "value": 100},
      {"measurement": "Plant response rating, Ducksalad (Flood)", "setting": "ducksalad", "value": 0},
      {"measurement": "Plant response rating, Wheat", "setting": "wheat [18]; [26]", "value": 20},
      {"measurement": "Wheat plant response rating", "setting": "wheat [18]; [27]", "value": 0},
      {"measurement": "Plant response rating, Oat, Wild", "setting": "oat, wild [19]; [24]", "value": 0},
      {"measurement": "Plant response rating, Oat, Wild", "setting": "oat, wild [19]; [25]", "value": 0},
      {"measurement": "Plant response rating, Kochia", "setting": "kochia [20]; [26]", "value": 50},
      {"measurement": "Kochia plant response rating", "setting": "kochia [20]; [27]", "value": 0},
      {"measurement": "Corn plant response rating", "setting": "corn [21]", "value": 0},
      {"measurement": "Plant response rating, Soybean", "setting": "soybean [22]; [24]", "value": 100},
      {"measurement": "Plant response rating, Soybean", "setting": "soybean [22]; [25]", "value": 100},
      {"measurement": "Plant response rating, Barnyardgrass", "setting": "barnyardgrass [23]; [24]", "value": 10},
      {"measurement": "Plant response rating, Barnyardgrass", "setting": "barnyardgrass [23]; [25]", "value": 30},
      {"measurement": "Plant response rating, Rice (Flood)", "setting": "rice", "value": 0}
    ]}
  ]
}
